Legend:
[1] = Aggregation in solution judged from linear plots of UV-vis absorbance (ε determination); assay type: physicochemical; conditions: low concentrations relevant for UV-vis measurements, 10^−4-10^−6 M
Text: (§1) The most variable compounds of the invention are 2 and 3, because of the easy substitution of the chloride in the —SO2Cl functions of 2 and the large variety of metal ions that can be inserted into either 2 or 3. In the present example, metallation of compound 3 is described. Generally, the same methods that were developed for corrole 1 worked for 3 as well: GaCl3/pyridine for obtaining compound 15, the gallium(III) complex of 3; Mn(OAc)2/DMF for obtaining compound 16, the manganese(III) complex of 3; Co(OAc)2/PPh3/EtOH for obtaining compound 17, the (triphenylphosphine)cobalt(III) complex of 3; SnCl2.2H2O/DMF for obtaining compound 18, the (chloro)tin(IV) complex of 3; and CrCl2/pyridine for obtaining compound 19, the (bis-pyridine)chromium(III) complex of 3.

[2] = Solubility in water of compound 3 and its metal complexes; assay type: physicochemical
Text: as §1

In the case of O=S(=O)(O)C1=Cc2nc1c(-c1c(F)c(F)c(F)c(F)c1F)c1ccc([nH]1)c(-c1c(F)c(F)c(F)c(F)c1F)c1ccc([nH]1)c(-c1c(F)c(F)c(F)c(F)c1F)c1cc(S(=O)(=O)O)c2[nH]1 [Compound 3, 5,10,15-Tris(pentafluorophenyl)-2,17-bis(sulfonic acid)-corrole], the “aggregation (linear plots obtained for elucidating the ε values)” value [1] is reported as “absence of aggregation” and the solubility in water [2] is reported as “soluble in water”.
